Experimental data reported in patent US20250163044A1, “COMPOUNDS” (PSYLO PTY LTD, priority 2021, published 2025).

Legend:
Assay type in all cases: cell-based
5-HT2B receptor = biological target: T1, 5-HT2B receptor (Homo sapiens, UniProt P41595); experiment: FLIPR Ca2+ flux functional assay, agonist activity at 5-HT2B; conditions: CHO-K1 cells, Ca2+ flux; for EC50: read-out: 5-HT2B EC50
T1 construct: host or cells: CHO-K1
Method: (§1) Activity at 5-HT2A, 5-HT2B and 5-HT2C receptors was determined using a FLIPR Ca2+ flux assay at WuXi AppTec Co. Ltd. (Hong Kong) Discovery Biology Unit according to their standard protocols. Briefly, stably transfected cells expressing the receptor of interest (HEK293 for 5-HT2A and 5-HT2C; CHO-K1 for 5-HT2B) were grown and plated in a 384 well plate and incubated at 37° C. and 5% CO2 overnight. A 250 mM stock solution of probenecid in FLIPR calcium assay buffer (10 mL) was freshly prepared and combined with a fluorescent dye (Fluo-4 Direct) to give a final assay concentration of 2.5 mM. Reference compounds were 4-fold serially diluted and the screening compounds were 3-fold serially diluted in 100% DMSO for 10 points using Agilent Bravo, and 750 nL was added to a 384 well compound plate using Echo along with 30 μL assay buffer. The fluorescent dye was then added to the assay plate along with assay buffer to a final volume of 40 μL. The cell plate was incubated for 50 min at 37° C. and 5% CO2 and placed into the FLIPR Tetra along with the compound plate. 10 μL of references and compounds were then transferred from the compound plate into the cell plate and the fluorescent signal was read.

5-HT2C receptor = biological target: T2, 5-HT2C receptor (Homo sapiens, UniProt P28335); experiment: FLIPR Ca2+ flux functional assay, agonist activity at 5-HT2C; conditions: HEK293 cells, Ca2+ flux; for EC50: read-out: 5-HT2C EC50
T2 construct: host or cells: HEK293
T2 sequence (P28335 33-458): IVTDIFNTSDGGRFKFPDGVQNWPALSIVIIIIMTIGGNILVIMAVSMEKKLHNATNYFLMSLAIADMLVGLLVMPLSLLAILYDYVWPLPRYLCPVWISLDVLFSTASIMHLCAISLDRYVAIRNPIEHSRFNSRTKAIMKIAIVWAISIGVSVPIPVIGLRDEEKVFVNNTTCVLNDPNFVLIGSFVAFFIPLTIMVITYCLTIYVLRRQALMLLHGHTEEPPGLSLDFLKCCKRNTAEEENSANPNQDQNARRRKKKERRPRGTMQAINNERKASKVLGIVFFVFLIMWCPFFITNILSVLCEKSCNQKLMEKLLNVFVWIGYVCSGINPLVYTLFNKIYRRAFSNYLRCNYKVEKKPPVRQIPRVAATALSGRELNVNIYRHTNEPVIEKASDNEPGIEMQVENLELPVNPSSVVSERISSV
Method: as §1

5-HT2A receptor = biological target: T3, 5-HT2A receptor (Homo sapiens, UniProt P28223); experiment: FLIPR Ca2+ flux functional assay, agonist activity at 5-HT2A; conditions: HEK293 cells, Ca2+ flux; for EC50: read-out: 5-HT2A EC50
T3 construct: host or cells: HEK293
T3 sequence (P28223 whole entry): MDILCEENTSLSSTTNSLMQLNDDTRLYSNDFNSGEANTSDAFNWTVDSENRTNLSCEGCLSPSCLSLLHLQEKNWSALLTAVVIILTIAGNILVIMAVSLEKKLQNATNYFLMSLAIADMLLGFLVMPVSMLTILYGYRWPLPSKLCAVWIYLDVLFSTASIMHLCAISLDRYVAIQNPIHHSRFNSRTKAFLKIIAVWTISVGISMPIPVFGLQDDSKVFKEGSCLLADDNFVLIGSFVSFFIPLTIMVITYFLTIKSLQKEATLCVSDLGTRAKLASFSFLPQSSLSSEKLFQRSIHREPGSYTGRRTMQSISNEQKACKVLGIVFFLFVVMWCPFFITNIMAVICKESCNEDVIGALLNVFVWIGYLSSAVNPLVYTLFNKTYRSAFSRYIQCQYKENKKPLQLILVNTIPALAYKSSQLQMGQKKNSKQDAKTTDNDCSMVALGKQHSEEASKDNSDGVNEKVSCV
Method: as §1

T1 sequence (P41595 whole entry): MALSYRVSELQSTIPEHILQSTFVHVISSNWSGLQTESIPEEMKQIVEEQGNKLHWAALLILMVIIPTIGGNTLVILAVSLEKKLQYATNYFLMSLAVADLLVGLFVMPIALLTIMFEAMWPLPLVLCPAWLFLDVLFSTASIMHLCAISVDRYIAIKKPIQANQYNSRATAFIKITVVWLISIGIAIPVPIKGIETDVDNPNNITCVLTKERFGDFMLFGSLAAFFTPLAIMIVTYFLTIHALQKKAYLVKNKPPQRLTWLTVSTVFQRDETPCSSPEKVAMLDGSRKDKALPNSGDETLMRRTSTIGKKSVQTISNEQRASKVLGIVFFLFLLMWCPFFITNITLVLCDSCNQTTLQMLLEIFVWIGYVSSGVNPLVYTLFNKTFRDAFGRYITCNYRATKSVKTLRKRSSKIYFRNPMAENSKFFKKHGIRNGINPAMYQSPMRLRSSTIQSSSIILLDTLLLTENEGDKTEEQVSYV

Compound	EC50 (5-HT2B receptor) [nM]	EC50 (5-HT2C receptor) [nM]	EC50 (5-HT2A receptor) [nM]	Emax (5-HT2B receptor) [%]	Emax (5-HT2A receptor) [%]	Emax (5-HT2C receptor) [%]
CN(C)CCc1n[nH]c2cccc(O)c12 [Example P-6]	> 10000	> 10000				
CN(C)CCc1n[nH]c2ccccc12 [Example P-7]	> 10000	2340	> 10000			
COc1ccc2onc(CCN(C)C)c2c1 [Example P-9, 2-(5-methoxybenzo[d]isoxazol-3-yl)-N,N-dimethylethan-1-amine]	> 10000	> 10000	1020	2.53	37.3	-30.5
CCN(CC)CCc1c[nH]c2ccc(OC)nc12 [Example P-10, 2-(5-Methoxy-1H-pyrrolo[3,2-b]pyridin-3-yl)-N,N-diethylethan-1-amine]	284	68.6	6.11	47.1	82.8	99.1
CCCN(CCC)CCc1c[nH]c2ccc(OC)nc12 [Example P-11, 2-(5-methoxy-1H-pyrrolo[3,2-b]pyridin-3-yl)-N,N-dipropylethan-1-amine]	52.2	91.1	4.17	92.1	99.1	96.3
COc1ccc2[nH]cc(CCN(C(C)C)C(C)C)c2n1 [Example P-12, N-isopropyl-N-(2-(5-methoxy-1H-pyrrolo[3,2-b]pyridin-3-yl)ethyl)propan-2-amine]	22.2	200	6.96	102	85.7	110
CCN(C)CCc1c[nH]c2ccc(OC)nc12 [Example P-13, N-ethyl-2-(5-methoxy-1H-pyrrolo[3,2-b]pyridin-3-yl)-N-methylethan-1-amine]	> 10000	31.9	10.1	2.25	79.6	95.8
COc1ccc2[nH]cc(CCN(C)C(C)C)c2n1 [Example P-14, N-(2-(5-methoxy-1H-pyrrolo[3,2-b]pyridin-3-yl)ethyl)-N-methylpropan-2-amine]	> 10000	139	21	1.06	78.9	98.3
CCN(CC)CCc1c[nH]c2ncc(OC)cc12 [Example P-17, 2-(5-methoxy-1H-pyrrolo[2,3-b]pyridin-3-yl)-N,N-diethylethan-1-amine]	> 10000	> 10000	279	0.37	84.7	-0.53
CCCN(CCC)CCc1c[nH]c2ncc(OC)cc12 [Example P-18, 2-(5-methoxy-1H-pyrrolo[2,3-b]pyridin-3-yl)-N,N-dipropylethan-1-amine]	> 10000	> 10000	85.5	9.35	89.4	-0.33
COc1cnc2[nH]cc(CCN(C(C)C)C(C)C)c2c1 [Example P-19, N-isopropyl-N-(2-(5-methoxy-1H-pyrrolo[2,3-b]pyridin-3-yl)ethyl)propan-2-amine]	> 10000	> 10000	72.9	13.3	112	0.16
CCN(C)CCc1c[nH]c2ncc(OC)cc12 [Example P-20, N-ethyl-2-(5-methoxy-1H-pyrrolo[2,3-b]pyridin-3-yl)-N-methylethan-1-amine]	> 10000	> 10000	93.3	1.38	76.7	-0.08
COc1cnc2[nH]cc(CCN(C)C(C)C)c2c1 [Example P-21, N-(2-(5-methoxy-1H-pyrrolo[2,3-b]pyridin-3-yl)ethyl)-N-methylpropan-2-amine]	> 10000	> 10000	109	4.56	79.8	-0.15
Cc1nccc2[nH]cc(CCN(C)C)c12 [Example P-39]			> 10000		1.47	
CCN(C)CCc1c[nH]c2ccnc(C)c12 [Example P-40]			> 10000		0.75	
